Results reported in patent US20090247732A1 (Optimer Pharmaceuticals, Inc., priority 2003, published 2009).
Ends that are not written are not given here. Peptide text beside a SMILES is read from it. * marks the point of attachment. Fmoc = O=C(OCC1c2ccccc2-c2ccccc21)*

Tests used:
trypsin [1] = test: Degradation study with trypsin (LCMS, product ratios by PDA integration); assay type: in vitro ADME; set-up: key to Deg 1 / Deg 2: product ratio (%) by PDA peak integration; details: for Deg 1 / Deg 2 / mode of enzymatic degradation (cleavage site / products): trypsin; for Deg 1 / Deg 2: pH 7.5; for Parent (%): 120 units trypsin, 0.1 M pH 7.5 potassium phosphate buffer; for mode of enzymatic degradation (cleavage site / products): in words
Method: Degradation Study: A solution of 1 (1 mg) in 0.1 M, pH 7.5 potassium phosphate buffer (1 mL) was treated with 120 units of trypsin (10 μL of a 1 mg/mL solution of trypsin 12000 units/mg). A 20 μL aliquot of the sample was immediately analyzed by LCMS.
Column: Waters Symmetry 300, 4.6×250 mm, C18, 5 micron particle size.
Solvent B: Acetonitrile/0.1% TFA
Gradient: 15-40% B over 30 minutes; 15% B isocratic for 10 minutes
The initial injection was defined as “time 0” and one subsequent injection was carried out at 40 minutes. The degradation products were characterized by mass spectrometry using electrospray positive ionization (ES^+). Product ratios were determined by integration of photodiode array (PDA) spectra.

trypsin [2] = test: trypsin in 0.1 M, pH 7.5 potassium phosphate buffer; details: up to 40 minutes
[3] = degradation product 1, time 40 minutes
[4] = degradation product 2, time 40 minutes
[5] = time 40 (injection at 40 minutes)

CC(=O)OCC1OC(OC2C(COC(C)=O)OC(OC3C(COC(C)=O)OC(OCC(=O)NC(CCCCN)C(=O)NC(CCCCN)C(=O)NC(CCCNC(=N)N)C(=O)NCC(=O)NCC(=O)NC(CO)C(=O)O)C(OC(C)=O)C3OC(C)=O)C(OC(C)=O)C2OC(C)=O)C(OC(C)=O)C(OC(C)=O)C1OC(C)=O (stereo not shown) [Compound 1]
Deg 1 (trypsin [1]; degradation product 1, time 0): 5
Deg 1 (trypsin [1]; [3]): 0
Deg 2 (trypsin [1]; degradation product 2, time 0): 20
Deg 2 (trypsin [1]; [4]): 100
Parent (%) (trypsin [1]; time 0 (initial injection)): 75%
Parent (%) (trypsin [1]; [5]): 0%
mode of enzymatic degradation (cleavage site / products) (trypsin [1]): hydrolysis is initially observed between the arginine and glycine residues

N=C(N)NCCCC(NC(=O)C(CCCCN)NC(=O)C(CCCCN)NC(=O)OCC1c2ccccc2-c2ccccc21)C(=O)NCC(=O)NCC(=O)NC(CO)C(=O)O (stereo not shown) [Compound 4] (Fmoc-KKRGGS-OH; configuration not given here)
Deg 1 (trypsin [1]; degradation product 1, time 0): 4
Deg 1 (trypsin [1]; [3]): 54
Deg 2 (trypsin [1]; degradation product 2, time 0): 4
Deg 2 (trypsin [1]; [4]): 45
Parent (%) (trypsin [1]; time 0 (initial injection)): 92%
Parent (%) (trypsin [1]; [5]): 1%
mode of enzymatic degradation (cleavage site / products) (trypsin [1]): hydrolysis occurs sequentially inward from the N-terminus

Compound 2: Crude triphenylmethyl protected glycopeptide from peptide A (SEQ ID No. 1) and carbohydrate glycolic acid C (KKRGGS; also: glycopeptide with carbohydrate glycolic acid C, triphenylmethyl protected)
Deg 1 (trypsin [1]; degradation product 1, time 0): 0
Deg 1 (trypsin [1]; [3]): 67
Parent (%) (trypsin [1]; time 0 (initial injection)): 60%
Parent (%) (trypsin [1]; [5]): 27%
mode of enzymatic degradation (cleavage site / products) (trypsin [1]): a single, as yet uncharacterized product of the enzyme reaction

KKRGGS
not cleaved (trypsin [2]): 100% parent at 40 minutes; no degradation products observed

KKRGGS [1]
cleaved bond (trypsin [2]): arginine-glycine, first_seen
fragment found (trypsin [2]): the two lysine residues conjugated to the carbohydrate
